The text below walks through data of ChEMBL document CHEMBL3507680, “University of Dundee, Gates Library screen for HepG2 cell viability”.

The data set can be described thus: Human HepG2 cell viability assay in 384 well format. The data set is classed as toxicity, cell-based. The arrangement: dose 125 nL, time 70.5 hour; concentration not given beside the values. The conditions noted are these: HepG2 cells, read-out: Inhibition.
Consider `O=C1CC(c2cccnc2)c2c(c(C(=O)O)cn2-c2cccc(F)c2)N1` (stereo not drawn), for which the cytotoxicity at 70.5 h is -8.96%. Under `Cc1n[nH]c2nc(-c3ccccc3O)cc(C(=O)O)c12` stands 13.5%; under `Cn1cc(C2SCC(=O)Nc3c2cnn3C(C)(C)C)cn1` (stereo not drawn), 0.666%; under `CC(C)(C)n1ncc2c1NC(=O)CSC2c1ccsc1` (stereo not drawn), -13.1%. For the compound `COc1ccccc1CNC(=O)COc1c(C)n(C)ccc1=O`, the cytotoxicity at 70.5 h is -20.3%. Under `CC1CC(=O)c2cc(C(=O)N3CCOCC3)c(=O)[nH]c2C1` (stereo not drawn) stands -0.268%; under `O=C(NCCc1cccc(F)c1)C1(n2cnnn2)CCCCC1`, -3.65%; under `Cc1nn(C)cc1-c1nn2c(C(F)(F)F)nnc2s1`, -9.41%. On to `CN(C)C(CNc1c(NCc2ccco2)c(=O)c1=O)c1ccccc1` (stereo not drawn), for which the cytotoxicity at 70.5 h is -8.7%. Under `CC1CCN(c2ccc(=O)n(CC(=O)N(C)Cc3ccccc3)n2)CC1` stands 16.3%. In the case of `O=c1c(NCc2ccccn2)c(NCC(O)CN2CCOCC2)c1=O` (stereo not drawn), the cytotoxicity at 70.5 h is -12.9%. Turning to `Cc1nn(C2CCS(=O)(=O)C2)c(O)c1Cc1ccc(Br)cc1` (stereo not drawn), the cytotoxicity at 70.5 h stood at 19.3%. Take `O=C(NC1CCCCC1)c1ccc(Oc2ccc3nncn3n2)cc1`: the cytotoxicity at 70.5 h is -7.56%. Under `CC(C)CNC(=O)CNc1c(NCc2ccco2)c(=O)c1=O` stands 0.885%. Under `Cc1nc(NC(=O)CCN2C(=O)c3ccccc3NC2C(C)C)sc1C` (stereo not drawn) stands -0.712%; under `CC(C)CNc1c(NCc2ccco2)c(=O)c1=O`, -11.5%; under `COCCn1ccc(=O)c(OCC(=O)Nc2cccc(OC)c2)c1C`, 13.8%.

For `COCCn1ccc(=O)c(OCC(=O)Nc2ccc(OC)c(Cl)c2)c1C`, the cytotoxicity at 70.5 h was -5.11%. As for `COc1ccc(CNc2c(N3CCN(C(C)=O)CC3)c(=O)c2=O)cc1`, the cytotoxicity at 70.5 h was -12.5%. Under `O=c1c(NCCc2ccc(O)cc2)c(NCc2ccco2)c1=O` stands -4.28%; under `COc1cc(OC)cc(-c2noc(C(N)CCSC)n2)c1` (stereo not drawn), -2.69%; under `Cc1c(C(=O)N2CCNC(=O)C2)sc2nc[nH]c(=O)c12`, 13.4%. Regarding `Cc1cccc(C)c1NC(=O)CC(CN1CCN(C)CC1)C(=O)O` (stereo not drawn), the cytotoxicity at 70.5 h was -15.8%. The same measure for `CCCn1[nH]c(CNc2cccc(Cl)c2)nc1=O`: -15.4%; for `COc1c[nH]c(C(=O)N2CCN(c3ccc(Cl)cc3)CC2)cc1=O`: 20.3%; for `CCn1c(=O)nc(N)c2c(-c3ccc(OC)cc3)csc21`: -10.3%. `Cc1nc2sc(C(=O)N3CCNC(=O)C3)c(C)c2c(=O)[nH]1`: the cytotoxicity at 70.5 h was -4.68%. Take `Cc1cc(NCc2ccco2)nc2[nH]nc(N)c12`: the cytotoxicity at 70.5 h was -3.79%.

With `COCCn1ccc(=O)c(OCC(=O)Nc2ccc(Br)cc2)c1C`, the cytotoxicity at 70.5 h was -7.36%. As to `Cc1ccsc1C1CC(=O)Nc2c1cnn2C(C)C` (stereo not drawn), the cytotoxicity at 70.5 h is -7.26%. Under `Cc1ccc(C(=O)Nc2nnc(C3CC3)s2)c(-n2cnnn2)c1C` stands -14.4%. Under `O=C(COc1coc(CN2CCCC2)cc1=O)Nc1cc(Cl)ccc1Cl` stands -7.96%; under `COC(=O)c1ccc(C2SC(C)=Nc3c2c(=O)[nH]n3C2CCCC2)cc1` (stereo not drawn), -14.5%; under `O=C(COc1coc(CN2CCCC2)cc1=O)Nc1ccc(Cl)c(Cl)c1`, -7.3%.

In the case of `Cn1ccc2ccc(C(=O)N3CCN(C(=O)OC(C)(C)C)CC3)cc21`, the cytotoxicity at 70.5 h turned out to be 3.39%. The same measure for `NC(=O)c1ccccc1NC(=O)CCN1CCN(CCO)CC1`: -10.4%; for `CC1=Nc2c(c(=O)[nH]n2C(C)C)C(c2ccc3c(c2)n(C)c(=O)n3C)S1` (stereo not drawn): -9%. With `CC1=Nc2c(c(=O)[nH]n2C(C)C)C(c2ccc3nccnc3c2)S1` (stereo not drawn), the cytotoxicity at 70.5 h was -2.49%. Under `Cc1nn2cnnc2c(C)c1CCC(=O)Nc1nc2c(s1)CCC2` stands -13%; under `O=C(Nc1cccnc1-n1cc(Br)cn1)C1CCCC1`, -25.7%.

On to `COc1coc(C(=O)Nc2nc(-c3ccccn3)cs2)cc1=O`, for which the cytotoxicity at 70.5 h is -7.13%.

As to `CC(C)n1ncc2c1NC(=O)CC21C(=O)Nc2c(Br)cc(Cl)cc21` (stereo not drawn), the cytotoxicity at 70.5 h is -14.8%. The same measure for `COCCCNC(=O)c1cc(-c2ccc(OC)cc2)nn1C`: 4.27%; for `CC(C)n1ncc2c1NC(=O)CC21C(=O)Nc2c(Cl)ccc(Cl)c21` (stereo not drawn): -12.2%. For the compound `CC(C)n1ncc2c1NC(=O)CC21C(=O)Nc2c(Cl)cc(Br)cc21` (stereo not drawn), the cytotoxicity at 70.5 h is -0.17%. Regarding `COc1ccc2nnc(CCCC(=O)NCCc3ccccc3)n2n1`, the cytotoxicity at 70.5 h was -9.61%. As to `CN1C(=O)COc2cc(NC(=O)CCc3nc4cccnc4[nH]3)ccc21`, the cytotoxicity at 70.5 h is -11.3%. `COc1ccc2nnc(CCC(=O)NCc3cccn3C)n2n1`: the cytotoxicity at 70.5 h was -2.62%. Under `COc1ccc(-c2cc(C(=O)NCCC(C)C)n(C)n2)cc1` stands 4.25%. The same measure for `CC(C)n1ncc2c1NC(=O)CC21C(=O)Nc2cc(Cl)cc(Cl)c21` (stereo not drawn): -17.8%; for `Cc1cc(C)nc(N2CCCC(C(=O)Nc3n[nH]c(C(C)C)n3)C2)n1` (stereo not drawn): -7.23%. Regarding `O=C(CCCNc1ncccn1)Nc1ccc(Cn2cncn2)cc1`, the cytotoxicity at 70.5 h was -10.8%. As for `Cc1nn(-c2ncccn2)c2c1C(c1cnn(C)c1)SCC(=O)N2` (stereo not drawn), the cytotoxicity at 70.5 h is -24.2%.

Consider `COC(=O)CNC(=O)c1cn(-c2ccccn2)c(=O)c2ccccc12`, for which the cytotoxicity at 70.5 h was -9.1%.

For the compound `Cc1nc(C(=O)N2CCN(S(C)(=O)=O)CC2)c(-c2ccccc2)s1`, the cytotoxicity at 70.5 h came to 9.71%. As to `CC(C)(C)C1SCC(=O)Nc2c1c(O)nn2C1CCCCC1` (stereo not drawn), the cytotoxicity at 70.5 h came out at 8.92%. For the compound `O=C(CCNC(=O)c1cnccn1)Nc1ncc[nH]1`, the cytotoxicity at 70.5 h is -31.8%.

Regarding `CCS(=O)(=O)N1CCc2nnc(CN(C)C(C)C)n2CC1`, the cytotoxicity at 70.5 h is 19.5%. In the case of `Cc1occc1C(=O)N1C[C@@H]2CN(S(C)(=O)=O)CCO[C@@H]2C1`, the cytotoxicity at 70.5 h was 46.9%. For the compound `CNC(=O)N1CCC2(CC1)C(=O)N(C)c1c(F)cccc12`, the cytotoxicity at 70.5 h is 4.07%. In the case of `Cn1nnc2c1CCN(S(C)(=O)=O)C2COCC1CC1` (stereo not drawn), the cytotoxicity at 70.5 h stood at 0.405%.

On to `O=C(NCCN1CCOCC1)c1cc2c(s1)CCN2Cc1cccnc1`, for which the cytotoxicity at 70.5 h was -3.99%. The same measure for `CCN1C(=O)CCCC12CCCN(C(=O)c1ccoc1)C2` (stereo not drawn): -3.69%. The same measure for `CN1C(=O)C2(CCN(C(=O)c3cccnc3)CC2)c2cccc(F)c21`: -2.04%; for `Cc1nc(C)c2c(n1)CCN(C(=O)CN(C)C)CC2`: 2.27%. Under `CC(C)Nc1ncnc2c1CCNCC2` stands 2.95%; under `Cc1ccc(N(CCC#N)C(=O)CN2CCCC2c2ccsc2)cc1` (stereo not drawn), 0.989%.

For the compound `CN(C)c1ccc(C(=O)N2CCCC2c2noc(C3CC3)n2)nn1` (stereo not drawn), the cytotoxicity at 70.5 h worked out at 13.8%. Under `CCc1nnc2n1CCN(CC(O)c1ccc3c(c1)OCCO3)C2` (stereo not drawn) stands 23.6%. The same measure for `CC(C)c1nc(C2CCCN2C(=O)c2ccc(C#N)cn2)no1` (stereo not drawn): 1.98%; for `CCC1CCCN(Cc2nc(N)c3ccccc3n2)C1` (stereo not drawn): 4.3%; for `CCCc1nc(C)c(C(=O)NCCn2nc3ccccn3c2=O)s1`: 19.2%. `CCc1nc(C)c(C(=O)NCCn2nc3ccccn3c2=O)s1`: the cytotoxicity at 70.5 h was -3.88%. In the case of `Cc1nc(C(C)C)sc1C(=O)NCCn1nc2ccccn2c1=O`, the cytotoxicity at 70.5 h is -1.52%. Under `O=C(NCCn1nc2ccccn2c1=O)c1sccc1-c1ccccc1` stands -5.5%; under `CCc1ccsc1C(=O)NCCn1nc2ccccn2c1=O`, -5.41%; under `CC1CN(CC(=O)Nc2ccncc2)CCN1Cc1nccn1C` (stereo not drawn), -0.423%. The same measure for `CC1CN(CC(=O)N2CCOCC2)CCN1Cc1nccn1C` (stereo not drawn): -2.16%; for `CC1CN(CC(=O)NC2CCOCC2)CCN1Cc1nccn1C` (stereo not drawn): -0.539%; for `c1nc(N2CCCC2Cn2cncn2)c2sccc2n1` (stereo not drawn): -4.84%. The same measure for `c1ccc2oc(CN3CCCC(Cn4cncn4)C3)nc2c1` (stereo not drawn): -1.69%; for `CN(C)CCn1c(=O)n(C)c(=O)c2ccccc21`: 18.7%. As to `CC(C)n1c(=O)c2ccccc2n(CCCN(C)C)c1=O`, the cytotoxicity at 70.5 h was -12.5%. Under `Cc1cccc(CN2CCS(=O)(=O)[C@@H]3CCN(C(=O)C4CC4)CC[C@@H]32)n1` stands 15.9%; under `Cc1ccnc(C(=O)N2C[C@@H]3CN(S(C)(=O)=O)CCO[C@@H]3C2)c1`, 18%.

As for `CC(C)N(C)Cc1nnc2n1CCN(S(=O)(=O)C1CC1)CC2`, the cytotoxicity at 70.5 h is -0.847%. The same measure for `CC(C)N(C)Cc1nnc2n1CCCN(S(=O)(=O)C1CC1)C2`: -5.26%; for `O=C1CC(c2ccncc2)C2(CCN(C(=O)NC3CC3)CC2)N1` (stereo not drawn): -1.57%; for `O=C1NC2(CCN(CCO)CC2)CC1c1ccccc1` (stereo not drawn): -2.09%. Under `O=C(c1ccccc1)N1C[C@@H]2CCCO[C@@H]2[C@H](N2CCCC2)C1` stands -4.22%; under `O=C(c1ccoc1)N1CCCC2(CCC(=O)N2Cc2ccncc2)C1` (stereo not drawn), -1.87%.

Turning to `CC(C)NC(=O)N1CCC2(CC1)NC(=O)CC2c1ccncc1` (stereo not drawn), the cytotoxicity at 70.5 h is -1.45%. Under `CCS(=O)(=O)N1CC[C@@H]2[C@H](CC1)N(Cc1cccc(C)n1)CCS2(=O)=O` stands 2.24%; under `CCC(=O)N1CC[C@@H]2[C@H](CC1)N(Cc1cccc(C)n1)CCS2(=O)=O`, 1.51%; under `Cc1ccc(C(=O)N2C[C@@H]3CCCO[C@@H]3[C@H](N3CCCC3)C2)cn1`, 0.948%. With `Cc1ccc2c(n1)N(CC1CC1)CCN(Cc1ccco1)C2`, the cytotoxicity at 70.5 h was 1.82%.

For the compound `c1ccc(CN2CCc3ncnc(N4CCCC4)c3CC2)nc1`, the cytotoxicity at 70.5 h was -4.15%. `Cn1cc(CN2CCc3ncnc(N4CCOCC4)c3CC2)cn1`: the cytotoxicity at 70.5 h was -1.66%.
